Read-outs that look alike come from different tables or passages of the source.
Assays:
A2780 = experiment: Anti-proliferative effect (CellTiter-Glo, 72 h), A2780; format: cell-based; conditions: A2780 cells, median, read-out: IC50 antiproliferation assay A2780 [M] (median)
How it was run: (§1)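 72 h compound treatment, 37 °C humidified; CellTiter-Glo added, 10 min incubation, luminescence read; day 0 plate read in parallel for baseline.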

MCL-1 = MCL-1 (Homo sapiens, UniProt Q07820); experiment: Protein-protein interaction assay MCL-1/Noxa BH3 peptide (MCL-1 assay), TR-FRET; format: binding; conditions: MBP-MCL-1 / Noxa BH3-derived peptide, median
MCL-1, sequence (Q07820 whole entry): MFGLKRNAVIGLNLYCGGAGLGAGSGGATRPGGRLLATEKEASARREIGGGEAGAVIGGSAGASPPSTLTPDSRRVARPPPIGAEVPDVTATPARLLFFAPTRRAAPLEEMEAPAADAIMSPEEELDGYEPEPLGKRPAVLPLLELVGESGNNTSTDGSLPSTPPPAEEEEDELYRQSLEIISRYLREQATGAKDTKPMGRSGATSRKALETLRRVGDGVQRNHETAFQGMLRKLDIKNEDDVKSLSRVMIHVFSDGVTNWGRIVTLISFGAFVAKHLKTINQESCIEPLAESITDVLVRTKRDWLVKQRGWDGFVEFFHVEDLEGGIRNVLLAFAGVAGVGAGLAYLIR
How it was run: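 IC50 came from a 4-parameter fit of the normalized 665/620 nm TR-FRET ratio (anti-MBP Eu-cryptate/streptavidin-XL665). Compounds (0.1 nM–20 μM, duplicates) were preincubated 10 min at 22 °C with 1 nM MBP-MCL-1 in pH 7 Tris/NaCl/KF buffer, then read after 1 h at 22 °C plus overnight at 4 °C.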

MV-4-11 = experiment: Anti-proliferative effect (CellTiter-Glo, 72 h), MV-4-11; format: cell-based; conditions: MV-4-11 cells, median, read-out: IC50 antiproliferation assay MV-4-11 [M] (median)
Protocol: Assessment of the Anti-Proliferative Effect of Compounds in Different Cell Lines
The impact of compounds on the proliferation of different cell lines was assessed using the CellTiter-Glo® Luminescent Cell Viability reagent from Promega (G7573). Of note, SUDHL10 and SUDHL5 (DLBCL), NCI-H929 (Multiple Myeloma), A2780 (ovarian carcinoma) as well as MV-4-11(AML) cells are sensitive to MCL-1 inhibition.
In parallel, cells were plated in a reference (day 0) plate for time zero determination.
Rim wells were excluded. The cells were incubated for 72 h hours in a humidified incubator at 37° C. The day 0 plate was measured by adding 30 μl/well of CTG solution (CellTiter-Glo® Luminescent Cell Viability reagent, Promega G7573) to time zero wells in the reference plate followed by a 10 minutes incubation and luminescence reading at 0.1 ms, using the PHERAstar FS microplate reader (BMG Labtech).
After 72 h incubation, the treated plates were measured in the same way as the day 0 plate mentioned above.

SUDHL5 [1] = experiment: Induction of caspase-3/7 activity (Caspase-Glo 3/7), SUDHL5; format: cell-based; conditions: caspase-3/7 induction, SUDHL5 cells, 3 h treatment, median
How it was run: (§2)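 DLBCL lines SUDHL5 and SUDHL10 treated with compounds for 3 h at 37 °C; caspase-3/7 activity read by Caspase-Glo 3/7 luminescence. Medium-only background subtracted; EC50 fitted with bottom fixed at 1 and top fixed at the reference compound's maximal induction.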

SUDHL5 [2] = experiment: Induction of cytotoxicity (CellTiter-Glo, 5 h), SUDHL5
Protocol: Therefore, cytotoxicity assays were run in parallel in SUDHL5 and SUDHL10 cells.
The different cell lines were plated in culture medium (RPMI 1640 [GIBCO #22400-089]supplemented with 10% Fetal Bovine Serum) at a density of 3.300 cells in 30 μl/well in a sterile, solid black, flat bottom, polystyrene, TC-treated 384-well microplate (Corning #3571) using Multidrop Combi Reagent Dispenser. As a control, medium without cells was also added to the plate. Cells were incubated in a humidified incubator at 37° C. overnight. On the next day, the cells were treated with compounds (stock solution, 10 mM in DMSO) using the HP D300 Digital Dispenser in a concentration range of 3.3×10e-5 M (33 μM) to 5×10e-9 M (5 nM) in a single-dot curve with at least 16 dilutions and a DMSO concentration of 0.33%. Rim wells were excluded. The cells were incubated for 5 h hours in a humidified incubator at 37° C. After this incubation, 30 μl of CellTiter-Glo@ Luminescent Cell Viability reagent (Promega, G7573) was added to each well using the Multidrop Combi Reagent Dispenser, followed by 15 min incubation on a shaker at room temperature. Finally, luminescence was read at 0.1 ms, with a gain of 3000 using the PHERAstar FS microplate reader (BMG Labtech).
The Bella DRC Master Sheet was used to calculate IC50s, with fixed CI=0 and C0=1.

SUDHL10 [3] = experiment: Induction of cytotoxicity (CellTiter-Glo, 5 h), SUDHL10
SUDHL10 [4] = experiment: Induction of caspase-3/7 activity (Caspase-Glo 3/7), SUDHL10; format: cell-based; conditions: caspase-3/7 induction, SUDHL10 cells, 3 h treatment, median
How it was run: as §2

OPM2 = experiment: Anti-proliferative effect (CellTiter-Glo, 72 h), OPM2; format: cell-based; conditions: OPM2 cells, median, read-out: IC50 antiproliferation assay OPM2 [M] (median)
How it was run: as §1

SUDHL5 [5] = experiment: Anti-proliferative effect (CellTiter-Glo, 72 h), SUDHL5; format: cell-based; conditions: SUDHL5 cells, antiproliferation, 72 h incubation, median, read-out: Antiproli SUDHL5 [M] (median)
How it was run: as §1

SUDHL10 [6] = experiment: Anti-proliferative effect (CellTiter-Glo, 72 h), SUDHL10; format: cell-based; conditions: SUDHL10 cells, antiproliferation, 72 h incubation, median, read-out: Antiproli SUDHL10 [M] (median)
How it was run: as §1

[7] = read-out: Cytotox SUDHL5 [M] (median), SUDHL5 cells, cytotoxicity induction, CellTiter-Glo, 5 h, median
[8] = read-out: Cytotox SUDHL10 [M] (median), SUDHL10 cells, cytotoxicity induction, CellTiter-Glo, 5 h, median
[9] = Homo sapiens, SU-DHL-5, 5 h, read-out: Cytotox SUDHL5 [M] (median), SUDHL5 cells, cytotoxicity induction, CellTiter-Glo, 5 h incubation, median
[10] = Homo sapiens, SU-DHL10, 5 h, read-out: Cytotox SUDHL10 [M] (median), SUDHL10 cells, cytotoxicity induction, CellTiter-Glo, 5 h incubation, median
[11] = read-out: Cytotox SUDHL5 [M] (median), SUDHL5 cells, cytotoxicity induction, CellTiter-Glo, 5 h incubation, median
[12] = read-out: Cytotox SUDHL10 [M] (median), SUDHL10 cells, cytotoxicity induction, CellTiter-Glo, 5 h incubation, median

IC50 (A2780) [M]	IC50 (MCL-1) [µM]	IC50 (MV-4-11) [M]	EC50 (SUDHL5 [1]) [µM]	EC50 (SUDHL10 [4]) [µM]	EC50 (SUDHL5 [1]; Homo sapiens, SU-DHL-5, 3 h) [µM]	IC50 (A2780; Homo sapiens, A2780, 72 h) [M]	IC50 (SUDHL5 [5]; Homo sapiens, SU-DHL-5, 72 h) [M]	IC50 (SUDHL10 [6]; Homo sapiens, SU-DHL10, 72 h) [M]	EC50 (SUDHL10 [4]; Homo sapiens, SU-DHL10, 3 h) [µM]	SMILES	IC50 (OPM2; Homo sapiens, OPM-2, 72 h) [M]	IC50 (SUDHL5 [2]; [9]) [M]	IC50 (SUDHL10 [3]; [10]) [M]	other results
> 3.3e-05	0.00536									CCc1nn(C)c2c1-c1cccc3c(CCCOc4cccc5cc(Cl)ccc45)c(C(=O)O)n(c13)CCCCOC2 (single isomer, unassigned; enantiomer 1) [Example 305, 7-{3-[(6-chloronaphthalen-1-yl)oxy]propyl}-3-ethyl-1-methyl-1,10,11,12,13,15-hexahydropyrazolo[4′,3′:9,10][1,6]oxazacycloundecino[8,7,6-hi]indole-8-carboxylic Acid (Enantiomer 1)]				IC50 (MV-4-11; Homo sapiens, MV4-11, 72 h): 1.36e-05 M
1.05e-05	0.022	1.28e-05								Cc1c2c(nn1C)COCCCCn1c(C(=O)O)c(CCCOc3cccc4cc(C(F)(F)F)ccc34)c3cccc-2c31 (single isomer, unassigned; enantiomer 2) [Example 312, 2,3-dimethyl-7-(3-{[6-(trifluoromethyl)naphthalen-1-yl]oxy}propyl)-2,10,11,12,13,15-hexahydropyrazolo[4′,3′:9,10][1,6]oxazacycloundecino[8,7,6-hi]indole-8-carboxylic Acid (Enantiomer 2)]				
> 3.3e-05	0.133	> 3.3e-05	> 33	> 33						Cc1ccc2c(OCCCc3c(C(=O)O)n4c5c(cccc35)-c3c(nn(C)c3C)COCCCC4)cccc2c1 (single isomer, unassigned; enantiomer 2) [Example 309, 2,3-dimethyl-7-{3-[(6-methylnaphthalen-1-yl)oxy]propyl}-2,10,11,12,13,15-hexahydropyrazolo[4′3′:9,10][1,6]oxazacycloundecino[8,7,6-hi]indole-8-carboxylic Acid (Enantiomer 2)]				IC50 (SUDHL5 [2]; [7]): > 3.3e-05 M; IC50 (SUDHL10 [3]; [8]): > 3.3e-05 M
1.02e-05	0.286	1.5e-05								CCc1nn(C)c2c1-c1cccc3c(CCCOc4cccc5cc(Cl)ccc45)c(C(=O)O)n(c13)CCCCOC2 (single isomer, unassigned; enantiomer 2) [Example 306, 7-{3-[(6-chloronaphthalen-1-yl)oxypropyl}-3-ethyl-1-methyl-1,10,11,12,13,15-hexahydropyrazolo[4′,3′:9,10](1,6]oxazacycloundecino[8,7,6-hi]indole-8-carboxylic Acid (Enantiomer 2)]				
8.63e-06	0.919	1.16e-05	> 33	20.1						CCc1nn(C)c2c1-c1cccc3c(CCCOc4cccc5cc(C(F)(F)F)ccc45)c(C(=O)O)n(c13)CCCCOC2 (single isomer, unassigned; enantiomer 2) [Example 315, 3-ethyl-1-methyl-7-(3-{[6-(trifluoromethyl)naphthalen-1-yl]oxy}propyl)-1,10,11,12,13,15-hexahydropyrazolo[4′,3′:9,10][1,6]oxazacycloundecino[8,7,6-hi]indole-8-carboxylic Acid (Enantiomer 2)]				IC50 (SUDHL5 [2]; [7]): 1.48e-05 M; IC50 (SUDHL10 [3]; [8]): 1.58e-05 M
	0.00412				5.04	1.89e-05	6.23e-06	2.59e-06	11.1	COCCn1nc2c(c1C)-c1cccc3c(CCCOc4cccc5ccccc45)c(C(=O)O)n(c13)C/C=C\COC2 (racemic) [Example 071, (rac)-(11Z)-2-(2-methoxyethyl)-3-methyl-7-[3-(naphthalen-1-yloxy)propyl]-2,10,13,15-tetrahydropyrazolo[4′,3′:9,10][1,6]oxazacycloundecino[8,7,6-hi]indole-8-carboxylic Acid]	1.3e-05	7.45e-06	1.76e-05	
	0.0147				12.1	> 3.3e-05	7.26e-06	1.01e-05	> 33	Cn1nc(CN2CCOCC2)c2c1COCCCCn1c(C(=O)O)c(CCCOc3cccc4ccccc34)c3cccc-2c31 (racemic) [Example 135, (rac)-1-methyl-3-(morpholin-4-ylmethyl)-7-[3-(naphthalen-1-yloxy)propyl]-1,10,11,12,13,15-hexahydropyrazolo[4′,3′:9,10][1,6]oxazacycloundecino[8,7,6-hi]indole-8-carboxylic Acid]	> 3.3e-05	1.06e-05	> 3.3e-05	
	0.0137		16.9	19.9		> 3.3e-05				CN1CCCn2c(C(=O)O)c(CCCOc3cccc4ccccc34)c3cccc(c32)-c2c(COc3ccc(-n4ccccc4=O)cc3)nn(C)c2C1 (single isomer, unassigned; enantiomer 2) [Example 1-116, 7,9-Dimethyl-1-[3-(1-naphthyloxy)propyl]-11-{[4-(2-oxopyridin-1(2H)-yl)phenoxy]methyl}-4,5,6,7,8,9-hexahydropyrazolo[3′,4′:7,8][1,5]diazecino[9,10,1-hi]indole-2-carboxylic Acid (Enantiomer 2)]				IC50 (OPM2): 2.96e-05 M; IC50 (SUDHL5 [5]): 3.25e-06 M; IC50 (SUDHL5 [2]; [11]): 1.32e-05 M; IC50 (SUDHL10 [3]; [12]): > 3.3e-05 M; IC50 (SUDHL10 [6]): 1.18e-05 M
	0.0171				19.5	2.88e-05	1.3e-05	9.02e-06	25.9	Cn1nc(COc2ccc(C3(O)CCOCC3)cc2)c2c1COCC=CCn1c(C(=O)O)c(CCCOc3cccc4ccccc34)c3cccc-2c31 (racemic) [Example 1-60, (rac)-(E/Z)-3-{[4-(4-hydroxytetrahydro-2H-pyran-4-yl)phenoxy]methyl}-1-methyl-7-[3-(naphthalen-1-yloxy)propyl]-1,10,13,15-tetrahydropyrazolo[4′,3′ 9,10][1,6]oxazacycloundecino[8,7,6-hi]indole-8-carboxylic Acid]	> 3.3e-05	2.1e-05	3.27e-05	
1.85e-05	0.0126		> 33	> 33			2.38e-05			CC(C)OCc1nn(C)c2c1-c1cccc3c(CCCOc4cccc5ccccc45)c(C(=O)O)n(c13)CCCN(C)C2 (single isomer, unassigned) [Example 1-72, 7,9-dimethyl-1-[3-(naphthalen-1-yloxy)propyl]-1-[(propan-2-yloxy)methyl]-4,5,6,7,8,9-hexahydropyrazolo[3′,4′:7,8][1,5]diazecino[9,10,1-hi]indole-2-carboxylic Acid]				IC50 (OPM2): 1.53e-05 M; IC50 (SUDHL5 [2]; [11]): 8.53e-06 M; IC50 (SUDHL10 [3]; [12]): 1.98e-05 M; IC50 (SUDHL10 [6]): 1.37e-05 M

Reference: patent US10981932B2, “Macrocyclic indole derivatives” (Bayer Aktiengesellschaft, priority 2016, dated 2021)
